Measured values from BindingDB's records for doi:10.1016/s0960-894x(02)00206-8 (Bristol-Myers Squibb, 2002).

test: In vitro C-C chemokine receptor type 3 activity of compound by using eotaxin induced human eosinophil chemotaxis assay

Row | Structure (SMILES) | IC50
1 | CC[C@H](O)[C@H]1C[C@@H](Cc2ccccc2)CCN1CCCNC(=O)Nc1cccc(C(C)=O)c1 [1-(3-Acetyl-phenyl)-3-{3-[(2R,4S)-4-benzyl-2-((S)-1-hydroxy-propyl)-piperidin-1-yl]-propyl}-urea] | 20 nM
2 | N#Cc1cccc(NC(=O)NCCCN2CCC(Cc3ccc(Cl)cc3)CC2)c1 [1-{3-[4-(4-Chloro-benzyl)-piperidin-1-yl]-propyl}-3-(3-cyano-phenyl)-urea] | 200 nM
3 | N#Cc1cccc(NC(=O)NCCCN2CCC(Cc3ccc(F)cc3)CC2)c1 [1-(3-Cyano-phenyl)-3-{3-[4-(4-fluoro-benzyl)-piperidin-1-yl]-propyl}-urea] | 80 nM
